In US20030229082A1, “Inhibition of RNA function” (The Regents of the University of California, priority 2002, published 2003):
Read-outs that look alike come from different tables or passages of the source.

Assays:
[1] = target: A-site RNA; settings: value stated for the competitor; read-out: KD of the high affinity drug (competitor) for A-site RNA; cited from earlier work
[2] = test system: Ribosomal A-site RNA; test: NMR line broadening of ligand signals; format: binding
[3] = test system: Ribosomal A-site RNA; test: Saturation transfer difference (STD) NMR binding experiment; settings: for STD signals @ 0.4-0.6 mM drug: Ribosomal A-site RNA
[4] = test system: Tat-TAR interaction (TAR with hybrid CycT1-Tat protein); test: Electrophoretic mobility shift assay (EMSA, gel shift); format: binding, HIV-1; settings: for Gel Shift Assay: HIV-1 TAR; for prevention of the binding between Tat and TAR (EMSA): concentrations between 0.1 and 1 μM, hybrid CycT1-Tat protein and TAR each at 0.1 μM; for binding to the TAR region: in vitro
Source text: RNA Binding Assays In vitro (Electrophoretic Mobility Shift Assay; EMSA)
EMSA is an effective method for determining whether TAR forms a complex with Tat and human cyclin T1. n the presence of TAR, containing the 5′ bulge and central loop, and these proteins, a lower mobility complex was observed on polyacrylamide gels. The lack of higher order complex formation signifies that a compound can block this RNA-protein interaction. […] These phenothiazines are used clinically as antipsychotic, sedative and antiemetic agents.

[5] = test system: DLS SL1 CA-loop RNA (dimer linkage site stem-loop 1); test: NMR line broadening of ligand signals; format: binding, HIV-1
[6] = target: A-site RNA; test: STD NMR competition experiment with paromomycin; format: binding; settings: calculated from IC50 of the STD competition with paromomycin by Cheng and Prusoff correction; read-out: KD for the interaction with A-site RNA
[7] = test system: RNA targets (ribosomal A-site, polio virus, DLS SL1, CVB3); format: binding; settings: specific tertiary RNA motifs, loops and bulges
[8] = test system: HIV-1 TAR RNA; test: NMR line broadening of ligand signals; format: binding
[9] = test system: Polio virus loop B RNA; format: binding; settings: first part of cell TOCSY/NOESY
[10] = test system: DLS SL1 CA-loop RNA (dimer linkage site stem-loop 1); test: TOCSY/NOESY NMR chemical shift mapping; format: binding, HIV-1
[11] = test system: CVB3 loop D RNA; test: NMR line broadening of ligand signals; format: binding, coxsackievirus B3
[12] = test system: Polio virus loop B RNA; format: binding
[13] = test system: DLS SL1 CA-loop RNA (dimer linkage site stem-loop 1); test: Saturation transfer difference (STD) NMR binding experiment; parameters: species or system HIV-1
[14] = test system: HIV-1 TAR RNA; test: TOCSY/NOESY NMR, structure of the acetylpromazine-TAR complex; format: binding
Protocol: Five different samples of the 31-nucleotide TAR were prepared: unlabeled, uniformly ^13C,^15N-labeled, type-specifically ^13C,^15N-labeled at G, A or C residues, respectively. All samples were prepared by in vitro transcription using T7 RNA polymerase and a synthetic DNA template and purified as described in Du, et al., Biochemistry 35, 4187 (1996). Acetylpromazine was purchased from Research Diagnostics Inc. Final sample conditions were 1-2 mM RNA in 10 mM sodium phosphate buffer (pH 6.5), 20 mM sodium chloride. Acetylpromazine was added in about two-fold excess over RNA.
The solution structure of the acetylpromazine-TAR complex was determined using a protocol very similar to that previously described by Schmitz, U., et al, (1999) Structure of the phylogenetically most conserved domain of SRP RNA, RNA 5, 1419-1429.
All NMR experiments were performed on Varian Inova 600 MHz spectrometers. Spectra were processed with NMRpipe and analyzed with SPARKY. Homonuclear 2D NOESY spectra in H2O were collected at 10° C. using the SSNOESY pulse sequence.
Due to the large number of intermolecular NOEs, 51, between acetylpromazine and TAR, binding of acetylpromazine to the 5′ bulge is very well defined.
The […] of acetylpromazine inserts between base pairs G26-C39 and A22-U40, preventing continuous stacking of the lower and upper stems as observed in structures induced by argininamide or Tat-peptide. However, another set of base-stacking interactions is created. U23 continues stacking on A22 in the fashion of an A-helix. This is evident by the NOEs from U23 H6 to A22 H2′ and H3′, and from U23 H1′ to A22 H2. Benzene ring II of acetylpromazine is stacked on U40. Stacking of U23 on A22 and benzene ring II on U40 arranges the U23 base and benzene ring II such that they look like an extra base pair continuing helical stacking on the A22-U40 base pair. This “pseudo base-pair” may contribute to the creation of a deeper minor groove (compared to the standard A-helix) to accommodate the aliphatic moiety of acetylpromazine. […]

[15] = test system: HIV-1 TAR RNA; test: Saturation transfer difference (STD) NMR binding experiment
[16] = test system: Polio virus loop B RNA; format: binding; remark: listed apart in the source
[17] = test system: CVB3 loop D RNA; test: Saturation transfer difference (STD) NMR binding experiment; parameters: species or system coxsackievirus B3
[18] = test system: Ribosomal A-site RNA; test: TOCSY/NOESY NMR chemical shift mapping; format: binding
[19] = test system: HeLa cells; settings: human, 3 days
[20] = test system: Tat transactivation via TAR; test: Chloramphenicol acetyl transferase (CAT) assay in HeLa cells, HIV-1 LTR and Tat; settings: concentrations between 5 and 20 μM, dose-dependent

Compound | Line broadening [2] | STD signals @ 0.4-0.6 mM drug [3] | Gel Shift Assay [4] | Line broadening [8] | prevention of the binding between Tat and TAR (EMSA) [4] | binding to the TAR region [4] | STD signals @ 0.4-0.6 mM drug [15] | other results
NC[C@@H]1O[C@H](O[C@H]2[C@@H](O)[C@H](O[C@@H]3[C@@H](O)[C@H](N)C[C@H](N)[C@H]3O[C@H]3O[C@H](CO)[C@@H](O)[C@H](O)[C@H]3N)O[C@@H]2CO)[C@H](N)[C@@H](O)[C@@H]1O [paromomycin] |  |  |  |  |  |  |  | Kd [1]: 200 nM
CN(C)CCCN1c2ccccc2Sc2ccccc21 [(4)] | yes | yes | positive |  |  |  |  | 
CC(=O)c1ccc2c(c1)N(CCCN(C)C)c1ccccc1S2 [(1), 10-[3-(dimethylamino)-propyl)phenothiazin-2-yl methyl ketone] | yes | yes | positive | yes | prevent completely | bind | yes | Line broadening [5]: yes; Kd [6]: ~10 µM; binding to RNA motifs by chemical shift mapping (TOCSY) [7]: binds to specific tertiary RNA motifs such as loops and bulges; TOCSY data [9]: yes/no data; inhibition of the interaction of TAR and Tat ([4]; compound at 100 nM, TAR and Tat both at 100 nM): completely inhibited; TOCSY data [10]: yes/no data; Line broadening [11]: yes; Line broadening [12]: yes; STD signals @ 0.4-0.6 mM drug [13]: yes; binding site on TAR in solution (NMR-derived structural model) ([14]; 5′ bulge): binds to the 5′ bulge of TAR; TOCSY data ([14]; first part of cell TOCSY/NOESY): yes/yes; NOESY data ([14]; second part of cell TOCSY/NOESY): yes/yes; STD signals @ 0.4-0.6 mM drug [16]: yes; STD signals @ 0.4-0.6 mM drug [17]: yes; NOESY data [18]: yes/yes; TOCSY data [18]: yes/yes
CCSc1ccc2c(c1)N(CCCN1CCN(C)CC1)c1ccccc1S2 [thiethylperazine] |  |  |  |  | did not | not found to have such binding activity |  | 
CCCCNCCCN1c2ccccc2Sc2ccc(Cl)cc21 [(8)] |  |  |  | yes |  |  | yes | 
CN(C)CCCN1c2ccccc2Sc2ccccc21 [(2)] | yes | yes | positive |  |  |  |  | 
CN1CCN(CCCN2c3ccccc3Sc3ccc(C(F)(F)F)cc32)CC1 [trifluoperazine] |  |  |  |  | did not | not found to have such binding activity |  | inhibitory effect on the RNA of the ribosomal A-site ([3]; method not specified): inhibitory effect
Clc1ccc2c(c1)N(CCCn1ccnc1)c1ccccc1S2 [(11)] |  |  |  |  |  |  | yes | 
CN1CCN(CCCN2c3ccccc3Sc3ccc(Cl)cc32)CC1 [prochlorperazine] |  |  |  |  | prevent completely | bind |  | concentration at which significant cellular toxicity resulted [19]: > 20 µM; inhibition of Tat transactivation [20]: up to 6 fold
Clc1ccc2c(c1)N(CCCN1CCCCC1)c1ccccc1S2 [(9)] |  |  |  | little |  |  | yes | 
OCCNCCCN1c2ccccc2Sc2ccc(Cl)cc21 [(7)] |  |  |  | yes |  |  | yes | 
CN(C)CCCN1c2ccccc2Sc2ccccc21 [(5)] | yes | yes | negative |  |  |  |  | 
CN(C)CCCN1c2ccccc2Sc2ccccc21 [(3)] | yes | no | negative |  |  |  |  | 
Clc1ccc2c(c1)N(CCCNCc1ccccc1)c1ccccc1S2 [(10)] |  |  |  | little |  |  | yes | 
CN(C)CCCN1c2ccccc2Sc2ccccc21 [(6)] | little | no | positive | yes |  |  |  | 
CN(C)CCCN1c2ccccc2Sc2ccc(Cl)cc21 [chlorpromazine, 2-chloro-10-(dimethylaminopropyl)phenothiazine] |  |  |  |  | prevent completely | bind |  | 
